# Measurements from patent US20050239656A1, “Pyridine compounds or salts thereof and herbicides containing the same” (priority 2002, published 2005).
# Key:
# barnyardgrass [1] = test: Test Example 1: foliage treatment, upland pot test; type: in vivo, Echinochloa crus-galli L.; conditions: active ingredient 500 g/ha, observed 18th to 23rd day, 0 = non-treated, 100 = complete kill
# Procedure, shortened: (§1)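 Visual growth-control scores (0 = untreated, 100 = complete kill) were taken 18–23 days after foliar spraying of a wettable powder or emulsifiable concentrate, diluted in 500 L/ha water with 0.1% (v/v) spreader. Treatment leaf stages: barnyardgrass 1.3–2.8, rice 1.2–2.6, wheat 1.3–2.4, soybean 0.1–0.4.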
# crabgrass [2] = test: Test Example 1: foliage treatment, upland pot test; type: in vivo, Digitaria sanguinalis L.; conditions: active ingredient 500 g/ha, observed 18th to 23rd day, 0 = non-treated, 100 = complete kill
# green foxtail [3] = test: Test Example 1: foliage treatment, upland pot test; type: in vivo, Setaria viridis L.; conditions: active ingredient 500 g/ha, observed 18th to 23rd day, 0 = non-treated, 100 = complete kill
# redroot pigweed [4] = test: Test Example 1: foliage treatment, upland pot test; type: in vivo, Amaranthus retroflexus L.; conditions: active ingredient 500 g/ha, observed 18th to 23rd day, 0 = non-treated, 100 = complete kill
# prickly sida [5] = test: Test Example 1: foliage treatment, upland pot test; type: in vivo, Sida spinosa L.; conditions: active ingredient 500 g/ha, observed 18th to 23rd day, 0 = non-treated, 100 = complete kill
# velvetleaf [6] = test: Test Example 1: foliage treatment, upland pot test; type: in vivo, Abutilon theophrasti MEDIC.; conditions: active ingredient 500 g/ha, observed 18th to 23rd day, 0 = non-treated, 100 = complete kill
# rice [7] = test: Test Example 1: foliage treatment, upland pot test; type: in vivo, Oryza sativa L.; conditions: crop, active ingredient 500 g/ha, observed 18th to 23rd day, 0 = non-treated, 100 = complete kill
# Procedure, shortened: as §1
# corn [8] = test: Test Example 1: foliage treatment, upland pot test; type: in vivo, Zea mays L.; conditions: crop, active ingredient 500 g/ha, observed 18th to 23rd day, 0 = non-treated, 100 = complete kill
# Procedure, shortened: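 Corn seeds were sown in upland field soil held in a 1/170,000 ha pot and grown to the 2.1 to 3.2 leaf stage. A wettable powder or emulsifiable concentrate of the test compound was diluted with water at 500 L/ha, given 0.1% (v/v) agricultural spreader, and sprayed onto the foliage with a small sprayer. Growth controlling degree (%) was scored visually 18th to 23rd days later, from 0 (non-treated) to 100 (complete kill).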
# soybean [9] = test: Test Example 1: foliage treatment, upland pot test; type: in vivo, Glycine max Merr.; conditions: crop, active ingredient 500 g/ha, observed 18th to 23rd day, 0 = non-treated, 100 = complete kill
# Procedure, shortened: as §1
# barnyardgrass [10] = test: Test Example 2: soil surface treatment, upland pot test; type: in vivo, Echinochloa crus-galli L.; conditions: active ingredient 500 g/ha, observed 20th to 28th day
# Procedure, shortened: (§2)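 Upland soil in pots of 1/170,000 ha is sown; on day 1 after sowing the formulated compound (wettable powder or emulsifiable concentrate, predetermined a.i. amount, water volume 1,500 L/ha) is applied to the soil surface with a small sprayer. Percent control is judged by eye 20–28 days later.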
# crabgrass [11] = test: as above; type: in vivo, Digitaria sanguinalis L.; conditions: active ingredient 500 g/ha, observed 20th to 28th day
# Procedure, shortened: as §2
# green foxtail [12] = test: as above; type: in vivo, Setaria viridis L.; conditions: active ingredient 500 g/ha, observed 20th to 28th day
# Procedure, shortened: as §2
# redroot pigweed [13] = test: as above; type: in vivo, Amaranthus retroflexus L.; conditions: active ingredient 500 g/ha, observed 20th to 28th day
# Procedure, shortened: as §2
# prickly sida [14] = test: as above; type: in vivo, Sida spinosa L.; conditions: active ingredient 500 g/ha, observed 20th to 28th day
# Procedure, shortened: as §2
# velvetleaf [15] = test: as above; type: in vivo, Abutilon theophrasti MEDIC.; conditions: active ingredient 500 g/ha, observed 20th to 28th day
# Procedure, shortened: as §2
# rice [16] = test: as above; type: in vivo, Oryza sativa L.; conditions: active ingredient 500 g/ha, observed 20th to 28th day
# Procedure, shortened: as §2
# corn [17] = test: as above; type: in vivo, Zea mays L.; conditions: active ingredient 500 g/ha, observed 20th to 28th day
# Procedure, shortened: as §2
# soybean [18] = test: as above; type: in vivo, Glycine max Merr.; conditions: active ingredient 500 g/ha, observed 20th to 28th day
# Procedure, shortened: as §2
# barnyardgrass [19] = test: Test Example 3: paddy pot test, application under submerged conditions; type: in vivo, Echinochloa crus-galli L.; conditions: active ingredient 125 g/ha; submerged application at 0.5 leaf stage; visually observed 14 days after application; 0 = non-treated, 100 = complete kill
# Procedure, shortened: (§3)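 Paddy soil pots; seeds sown, lightly covered; flooded 0.5–1 cm in greenhouse; wapato tubers planted day 1–2; flood raised to 3–4 cm. Submerged pipette application at 0.5 leaf / primary leaf stage. Visual score day 14, 0–100%.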
# japanese bulrush = test: as above; type: in vivo, Scirpus juncoides; conditions: active ingredient 125 g/ha; submerged application at 0.5 leaf stage; visually observed 14 days after application; 0 = non-treated, 100 = complete kill
# Procedure, shortened: as §3
# japanese ribbon wapato = test: as above; type: in vivo, Sagittaria pygniaea; conditions: active ingredient 125 g/ha; submerged application at primary leaf stage; visually observed 14 days after application; 0 = non-treated, 100 = complete kill
# Procedure, shortened: as §3
# rice (var. Nihonbare) = test: Test Example 3: paddy pot test, transplanted rice; type: in vivo, Oryza sativa L.; conditions: active ingredient 125 g/ha, applied 4th day after transplantation, visually observed 21st day after application, 0 = non-treated, 100 = complete kill
# Procedure, shortened: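 Visual crop-injury rating (0 = as untreated, 100 = complete kill, %) taken 21 days post-application. Treatment: formulated compound, water-diluted, pipetted into 3–4 cm flood water at a preset active-ingredient dose, 4 days after transplanting 2-leaf Nihonbare rice 3 cm deep in puddled paddy soil.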
SMILES,Growth controlling degree (%) Barnyardgrass (barnyardgrass [1]) [%],Growth controlling degree (%) Crabgrass (crabgrass [2]) [%],Growth controlling degree (%) Green foxtail (green foxtail [3]) [%],Growth controlling degree (%) Redroot pigweed (redroot pigweed [4]) [%],Growth controlling degree (%) Prickly sida (prickly sida [5]) [%],Growth controlling degree (%) Velvetleaf (velvetleaf [6]) [%],Growth controlling degree (%) Rice (rice [7]) [%],Growth controlling degree (%) Corn (corn [8]) [%],Growth controlling degree (%) Soybean (soybean [9]) [%],Growth controlling degree (%) Barnyardgrass (barnyardgrass [10]) [%],Growth controlling degree (%) Crabgrass (crabgrass [11]) [%],Growth controlling degree (%) Green foxtail (green foxtail [12]) [%],Growth controlling degree (%) Redroot pigweed (redroot pigweed [13]) [%],Growth controlling degree (%) Prickly sida (prickly sida [14]) [%],Growth controlling degree (%) Velvetleaf (velvetleaf [15]) [%],Growth controlling degree (%) Rice (rice [16]) [%],Growth controlling degree (%) Corn (corn [17]) [%],Growth controlling degree (%) Soyabean (soybean [18]) [%],Growth controlling degree (%) Barnyardgrass (barnyardgrass [19]) [%],Growth controlling degree (%) Japanese bulrush (japanese bulrush) [%],other results
CC(C)C(c1cnccc1Cl)N(C)C(=O)Cc1c(F)cccc1F (stereo not shown) [I-70],40,80,60,50,80,80,20,50,30,80,98,70,70,50,0,40,0,0,80,70,Growth controlling degree (%) Japanese ribbon wapato (japanese ribbon wapato): 40%; Growth controlling degree (%) Rice (rice (var. Nihonbare)): 10%
CC(C)C(c1cnccc1Cl)N(C)C(=O)Cc1ccc(F)cc1 (stereo not shown) [I-67],50,90,70,60,80,60,10,0,50,90,95,95,40,80,60,10,40,10,100,98,Growth controlling degree (%) Japanese ribbon wapato (japanese ribbon wapato): 60%; Growth controlling degree (%) Rice (rice (var. Nihonbare)): 0%
CC(C)C(c1cnccc1Cl)N(C)C(=O)Cc1cccc(F)c1 (stereo not shown) [I-65],10,60,10,90,80,70,20,0,20,60,90,60,50,10,10,20,30,0,98,90,Growth controlling degree (%) Japanese ribbon wapato (japanese ribbon wapato): 60%; Growth controlling degree (%) Rice (rice (var. Nihonbare)): 0%
CC(C)C(c1cnccc1Cl)N(C)C(=O)Cc1ccc(C(F)(F)F)cc1 (stereo not shown) [I-69],10,90,30,70,80,95,10,60,60,95,98,85,50,80,20,10,20,40,95,70,Growth controlling degree (%) Japanese ribbon wapato (japanese ribbon wapato): 40%; Growth controlling degree (%) Rice (rice (var. Nihonbare)): 0%
